Measurements published in patent US20050159362A1, “Mediators of reverse cholesterol transport for the treatment of hypercholesterolemia” (priority 2003, published 2005).
Entries after “also recorded” stand apart in the source; their conditions may differ. Square brackets hold non-standard residues; d marks the D form. Ends that are not written are not given here. Bip = N[C@@H](Cc1ccc(-c2ccccc2)cc1)C(=O)O

How the values were obtained:
[1] = system: C57BL/6J mice fed a cholate-containing high fat diet (HFC); assay: Effect of single bolus injections of peptides on plasma lipoprotein profile; assay type: in vivo, mouse
Description: Effect of single bolus injections of peptides on plasma lipoprotein profile—To monitor effect of peptides on plasma cholesterol levels and its distribution among the different lipoprotein classes, the nonradioiodinated free peptides (100 μg in 100 μl of PBS) were injected intravenously into the tail vein of nonfasted C57BL/6J wild type mice, which have been placed on high fat cholate-containing diet four days prior to experiment. To control for the effect of external- and/or internal nonspecific factors (stress of handling, anesthetic, blood drawing) on plasma lipoprotein profile, a similar group of mice was injected with only PBS. Different groups of mice were sacrificed before and at various times after injections and blood was drawn by retroorbital puncture and subjected to low speed centrifugation at 4° C. to obtain the plasma. Plasma samples were obtained, combined within each group (4 mice), and subjected to gel filtration chromatography on a Superose 6 (HR 10/30 column, FPLC) to monitor cholesterol lipoproteins distribution and agarose gel electrophoresis (Paragon Systems) to monitor phospholipid lipoproteins distribution.
(§1) To monitor cholesterol distribution among the different lipoprotein classes, plasma samples were combined within each group (usually 4-6 mice per group), and subjected to FPLC size-exclusion chromatography on a Superose 6 (HR 10/30 column, Amersham-Pharmacia) using an isocratic 10 mM Tris/150 mM NaCl/1 mM EDTA buffer system at a flow rate of 0.15 ml/min. Fractions (0.15 ml) were collected into 96-well plates containing 0.055 ml of 1:1 mixture of 0.5% Triton X-100 and 20 mM Sodium Cholate. Total and free cholesterol in plasma fractions was determined by using the fluorescent method of W. Gamble, et al. (Gamble et al., 1978, Journal Lipid Res., 16: 1068-1070). 96-well plates were read on Dual-Scanning Microplate Spectrofluorometer Gemini XS (Molecular Devices). The areas under the lipoprotein peaks were quantified by using Unicorn software (Version 3.21.02). The amount of esterified cholesterol was assessed by subtraction of free cholesterol from total cholesterol.
Mice were divided into two groups—control and experimental. Each group contained 4 mice.
Effect of “frame-shift” derived peptides on lipoprotein metabolism (Single bolus injections)—We performed the functional frame-shift of the entire region of mouse apolipoprotein A1 where SEQ ID NO: 1 derived from (helix 6, Pro166-Pro188, precursor protein). Frame-shift was done in both directions (form N-to C- and from C- to N-Terminus). […] Mice were divided into two groups—control and experimental. Each group contained 4 mice. […] The data are expressed as percent of change of total cholesterol (TC) content of VLDL, IDL/LDL, and HDL classes in experimental mice relative to control (PBS injected) mice.
Effect of chemically modified derivatives of SEQ ID NO: 1 and peptides derived from other mouse apoA1 regions on mouse plasma lipoprotein profile (Single bolus injections)—To increase SEQ ID NO: 1 hydrophobicity, Phenyl Acetyl or Pivalic Acid were attached to N-Terminal Tyr residue of SEQ ID NO: 1, or Tyr residue was removed from N-terminus. […] Mice were divided into two groups—control and experimental. Each group contained 4 mice. […] The data are expressed as percent of change of total cholesterol (TC) content of VLDL, IDL/LDL, and HDL classes in experimental mice relative to control (PBS injected) mice.

[2] = system: C57BL/6J mice switched on HFC diet; assay: Effect of time-released peptides on plasma lipoprotein profile (20 hrs pumps); assay type: in vivo, mouse; settings: for plasma HDL cholesterol levels / plasma levels of HDL phospholipids / plasma levels of low density lipoproteins: 20 hrs continuous infusion, pumps 8 ul/hr; for activity upon infusion into mice for 20 hrs: 20 hrs infusion, FIG. 16
Description: (§2) Effect of time-released peptides on plasma lipoprotein profile—To determine relatively long-term effect of SEQ ID NO: 1 and its derivatives on plasma lipoprotein profile, the Alzet Mini-Osmotic pumps (220 ul), containing various peptides or PBS, were surgically inserted in canulated Chow fed C57BL/6J mice. The pumps with flow rate equal to 8 μl/hr were used for 20 hrs continuous infusion of peptides. The pumps with flow rate equal to 1 μl/hr were used for 160 hrs continuous infusions of peptides. At the end point (20 or 160 hrs after pumps insertion) mice were sacrificed, and blood was drawn by retroorbital puncture and subjected to low speed centrifugation at 4° C. to obtain the plasma. Bile was immediately removed from gall bladders using insulin syringes, and stored on ice until use.
as §1
To monitor the distribution of phospholipid among the lipoprotein classes, plasma samples were combined within each group (usually 4-6 mice per group), and subjected to agarose gel electrophoresis, which was carried out using the Paragon system (Beckman Coulter) according to manufacturer's instructions, with following staining with Paragon Lipo Stain (Beckman Coulter 655910). Once dried, the gels were scanned on Personal Densitometer SI (Molecular Dynamics) and bands were quantified using ImageQuant™ software (Verssion 5.2).
Impact of SEQ ID NO: 1 on lipoprotein metabolism (20 hrs pumps)—To determine relatively long-term effect of SEQ ID NO: 1 on plasma lipoprotein profile, the Alzet Mini-Osmotic pumps, containing SEQ ID NO: 1 or PBS, were surgically inserted in canculated Chow fed C57BL/6J mice. The pumps flow rate was equal to 8 ul per hr, which provided the delivery amount of SEQ ID NO: 1 per hr as indicated for FIG. 9. Mice were switched on HFC diet immediately after surgery. 20 hrs later plasma samples were obtained, combined within each group (4 to 6 mice), and subjected to FPLC analysis and agarose gel electrophoresis for assessment of cholesterol and phospholipid distribution among the lipoprotein classes. […] The LDL lowering effect was attenuated with increase of SEQ ID NO: 1 concentration. This phenomenon can be explained by self-competition between free and LDL-bound form of SEQ ID NO: 1 for the liver lipoprotein binding sites. In contrast, HDL cholesterol levels were positively correlated with SEQ ID NO: 1 concentration.
Impact of SEQ ID NO: 1 structural derivatives (3 to 13 amino acid residues) on lipoprotein metabolism (20 hrs pumps)—To determine relatively long-term effect on plasma lipoprotein profile, the Alzet Mini-osmotic pumps, containing SEQ ID NO: 1 derivatives or PBS, were surgically inserted in canulated Chow fed C57BL/6J mice. The pumps flow rate was equal to 8 ul per hr, which provided the deliveries of 30-40 μg of peptides per hr. Mice were switched on HFC diet immediately after surgery. […]

[3] = system: LDLR−/− mice and A-I−/− mice; assay: Plasma clearance and tissue distribution of SEQ ID NO: 1-125I-LDL complexes; assay type: in vivo, mouse
Description: Plasma clearance and tissue distribution of SEQ ID NO: 1-LDL complexes—^125I-LDL (0.2 nmol) was incubated at 37° C. in PBS alone, or with 4 nmol of SEQ ID NO: 1. After 2 h, the mixture was dialyzed against PBS containing […] BHT. ^125I-LDL alone or SEQ ID NO: 1/^125I-LDL complex were injected intravenously into the tail vein of nonfasted mice under metofane anesthesia. Mice were bled at the certain time points after the injection by retroorbital bleeding into heparinized tubes. The blood was subjected to low speed centrifugation (1800 g, 4° C.) and the 10% TCA precipitable radioactivity of the plasma was measured. […] An incision was made in the […] vena cava to clear the perfusate. Within 15 min, the liver, kidneys, spleen, and heart were removed, cleaned, weighed, and counted for ^125I radioactivity. Entire organs were counted with exception of liver, which was counted in pieces. Radioactivity detected per organ or per 1 g of wet tissue was expressed as a percent of the initial total injected radioactivity that was TCA precipitable.
To determine if SEQ ID NO: 1 can associate with human LDL, we attempted to form the complex of ^125I-SEQ ID NO: 1 with isolated human LDL. […] To determine if SEQ ID NQ: 1 influences lipoprotein transport to the liver, we injected the ^125-LDL alone or in complex with SEQ ID NO: 1 into LDLR−/− mice (no LDL-receptor) and A-I−/− mice, which have a functional hepatic LDL-receptor. […] To assess the contribution of LDL-receptors alone, the binding of [^125I-LDL] and [125I-LDL-SEQ ID NO: 1] to the liver of LDLR−/− mice was subtracted from their respective binding to the liver of A-I−/− mice, and data were normalized per gram of wet tissue. […] Influence of SEQ ID NO: 1 on ^125I-LDL binding to kidney, spleen, lung, heart, testis, adrenal, and prostate is shown in FIG. 8. It is noteworthy that no increase in 125I-LDL-SEQ ID NO: 1 complex binding to the heart was observed.

[4] = system: C57BL/6J mice switched on HFC diet; assay: Long term effect of peptides on lipoprotein metabolism (7 days pumps, 160 hrs); assay type: in vivo, mouse; settings: 160 hrs infusion, pumps 1 μl/hr
Description: as §2
To determine HDL cholesterol, low density lipoproteins were precipitated from plasma using a modified Burstein-Samaille method according to manufacturer's instructions (Boehringer Mannheim 543004), modifying only the ratio of reagent:water from 4:1 to 4:2. Gall bladder derived bile was diluted twice with deionized water, and cholesterol was determined using. Infinity reagents. 3α-Hydroxybile acids were quantified uiising a colorimetric-enzymatic method (Sigma 450).
as §1, with “Fractions (0.15 ml) were collected into 96-well plates containing 0.055 ml of 1:1 mixture of 0.5% Triton X-100 and 20 mM Sodium Cholate.” left out, “cholesterol. […]” for “cholesterol.”

PLTP = target: T1, PLTP (Mus musculus, UniProt P55065); assay: Effect of peptides on PLTP activity; assay type: biochemical; settings: mouse plasma incubated with 0.4, 2, 5 and 10 ug peptide at RT for 30 min
T1 construct: Mouse plasma (source of enzyme), obtained from Chow fed mice and from mice fed with high fat cholate containing diet; from tissue; host or cells: serum/plasma of C57BL/6J male mice (chow-fed or high fat cholate diet for 4 days)
Description: Effect of peptides on PLTP activity—PLTP activity was measured using a fluorescent kit (Cardiovascular Targets, Inc., P7700). PLTP source was serum obtained from C57BL/6J male 2 months old mice, which were Chow-fed or maintained on high fat cholate containing diet for four days. 1× Mouse serum was preincubated with PBS or 0.4, 2, 5, and 10 μg of peptides at RT for 30 minutes. Following preincubation, the mixture was diluted 10 times, and 10 μl ([…] nest serum) was immediately mixed into reaction wells of pre-chilled 96-well plate, containing assay system (Cardiovascular Targets, Inc., P7700). The microplates were read at 37° C. in SpectraMax 190 (Molecular Devices), for 30 minutes.
Mouse plasma (source of enzyme), obtained from Chow fed mice and from mice fed with high fat cholate containing diet for 4 days, was incubated with PBS or the peptide of SEQ ID Nos: 34, 86, 91 and 96 (0.4, 2, 5, and 10 ug) at RT for 30 min. Reaction was started by addition of 0.3 μl of plasma/PBS or plasma/SEQ ID NO mixture to 100 μl of assay solution containing fluorescent substrate. PLTP activity was monitored on Spectrofluorometer for 20 min at 37° C. Each bar represents the Mean±SEM obtained from 3 independent experiments.

T1 sequence (P55065 18-493): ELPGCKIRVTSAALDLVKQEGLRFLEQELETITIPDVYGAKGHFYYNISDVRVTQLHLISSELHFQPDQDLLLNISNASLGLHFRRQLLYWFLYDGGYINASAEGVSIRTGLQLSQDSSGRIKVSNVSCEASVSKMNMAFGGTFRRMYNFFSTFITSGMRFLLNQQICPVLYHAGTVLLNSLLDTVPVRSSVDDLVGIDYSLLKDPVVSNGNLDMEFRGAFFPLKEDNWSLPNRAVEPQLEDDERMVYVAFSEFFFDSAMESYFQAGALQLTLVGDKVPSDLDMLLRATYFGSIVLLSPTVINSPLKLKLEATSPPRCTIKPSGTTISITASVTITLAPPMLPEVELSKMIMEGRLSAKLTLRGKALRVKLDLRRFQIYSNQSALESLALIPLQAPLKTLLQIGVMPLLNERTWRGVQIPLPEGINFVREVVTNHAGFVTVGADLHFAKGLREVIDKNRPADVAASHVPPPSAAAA

| effect on PLTP activity (PLTP) | Substance | plasma HDL cholesterol levels [2] | plasma levels of HDL phospholipids [2] | plasma levels of low density lipoproteins [2] | amount of phospholipid in the HDL zone [4] | other results |
| --- | --- | --- | --- | --- | --- | --- |
| – | THVDSLRTQLAP (Ac-THVDSLRTQLAP-NH2) [SEQ ID NO: 7] | – | – | – | – | impact on plasma HDL-C levels ([1]; single bolus i.v. 100 μg): marked HDL-C elevating properties |
| – | YEFRDRMRTH [SEQ ID NO: 1] | elevated | elevated | dramatic decrease | – | duration of effect after single bolus injection [1]: up to 180 min; impact on plasma HDL-C levels ([1]; single bolus i.v. 100 μg): slight but significant decrease; impact on VLDL level ([1]; single bolus i.v. 100 μg, entire time course): no significant impact; impact on plasma IDL/LDL, low density lipoproteins ([1]; single bolus i.v. 100 μg, 90, 120 and 180 min after injection): Significant lowering; also recorded: strongest impact; in vivo half-life: 2 to 3 h; plasma clearance of 125I-LDL-SEQ ID NO: 1 complex ([3]; ApoA1−/− mice, compared to 125I-LDL alone): enhanced plasma clearance; liver-bound 125I-LDL after complexing with SEQ ID NO: 1 ([3]; both mouse genotypes (LDLR−/− and A-I−/−), compared to 125I-LDL alone): significant increase; complex binding to the LDL-receptors (liver binding in A-I−/− minus LDLR−/− mice) ([3]; compared to 125I-LDL alone, per gram of wet tissue): substantial increase; 125I-LDL-SEQ ID NO: 1 complex binding to the heart ([3]; mouse, in vivo): no increase |
| activation of PLTP | E-BIP-R (Glu-[Bip]-Arg) [SEQ ID NO: 91] | – | – | – | increase | – |
| activation of PLTP | EFR [SEQ ID NO: 34] | – | – | – | increase | – |
| did not have any significant effect | rDRMRTh ([dR]DRMRT[dH]) [SEQ ID NO: 35] | decrease | decrease | increase | – | activity upon infusion into mice for 20 hrs [2]: did not show significant activity |
| did not have any significant effect | dRMRTH ([dD]RMRTH) [SEQ ID NO: 36] | – | – | – | – | activity upon infusion into mice for 20 hrs [2]: did not show significant activity |
| activation of PLTP | efr ([dE]-[dF]-[dR]) [SEQ ID NO: 96] | – | – | – | – | – |
| – | EEFRDR [SEQ ID NO: 87] | decrease | decrease | increase | – | – |
| activation of PLTP | erf ([dE]-[dR]-[dF]) [SEQ ID NO: 86] | – | – | – | increase | – |
